Measured values reported in PubChem BioAssay (NCI).
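48-hour exposure; five concentrations; linearly interpolated endpoints. GI50: concentration for 50% inhibition of growth. TGI denotes the concentration required for complete inhibition of growth.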

Legend:
Assay in all cases: DTP human tumour cell line panel, 48 h
[1] = tested on: SW-620 colon
[2] = tested on: NCI-H226 lung
[3] = tested on: UO-31 renal
[4] = tested on: U251 CNS
[5] = tested on: CAKI-1 renal
[6] = tested on: OVCAR-4 ovarian
[7] = tested on: COLO 205 colon
[8] = tested on: HT29 colon
[9] = tested on: NCI/ADR-RES ovarian
[10] = tested on: RPMI-8226 leukemia
[11] = tested on: 786-0 renal
[12] = tested on: MDA-MB-231 breast
[13] = tested on: UACC-62 melanoma
[14] = tested on: SK-OV-3 ovarian
[15] = tested on: BT-549 breast
[16] = tested on: K-562 leukemia
[17] = tested on: SF-295 CNS
[18] = tested on: SNB-75 CNS
[19] = tested on: IGROV1 ovarian
[20] = tested on: HS 578T breast
[21] = tested on: OVCAR-3 ovarian
[22] = tested on: HOP-62 NSCLC
[23] = tested on: M14 melanoma
[24] = tested on: DU-145 prostate
[25] = tested on: NCI-H23 lung
[26] = tested on: TK-10 renal
[27] = tested on: SN12C renal
[28] = tested on: MDA-MB-435
[29] = tested on: A498 renal
[30] = tested on: NCI-H522 lung
[31] = tested on: SNB-19 CNS
[32] = tested on: SK-MEL-2 melanoma
[33] = tested on: LOX IMVI melanoma
[34] = tested on: ACHN renal
[35] = tested on: SF-268 CNS
[36] = tested on: KM12 colon
[37] = tested on: T-47D breast
[38] = tested on: MCF7 breast
[39] = tested on: MOLT-4 leukemia
[40] = tested on: HCC-2998 colon
[41] = tested on: HL-60(TB) leukemia
[42] = tested on: OVCAR-5 ovarian
[43] = tested on: SK-MEL-5 melanoma
[44] = tested on: A549 NSCLC
[45] = tested on: SK-MEL-28 melanoma
[46] = tested on: SF-539 CNS
[47] = tested on: CCRF-CEM leukemia
[48] = tested on: HOP-92 NSCLC
[49] = tested on: NCI-H460 lung
[50] = tested on: OVCAR-8 ovarian
[51] = tested on: MALME-3M melanoma
[52] = tested on: PC-3 prostate
[53] = tested on: UACC-257 melanoma
[54] = tested on: RXF 393 renal
[55] = tested on: EKVX NSCLC
[56] = tested on: HCT-15 colon
[57] = tested on: HCT-116 colon
[58] = tested on: SR leukemia

SMILES: COc1ccc2[nH]cc(-c3ccc(-c4c[nH]c5ccc(OC)cc45)s3)c2c1
- GI50 [1]: 2.94 µM
- TGI [1]: 8.15 µM
- GI50 [2]: 8.95 µM
- TGI [2]: > 42.9 µM
- GI50 [3]: 2.9 µM
- TGI [3]: 13.5 µM
- GI50 [4]: 3.68 µM
- TGI [4]: 12.6 µM
- GI50 [5]: 5.54 µM
- TGI [5]: 19 µM
- GI50 [6]: 6.82 µM
- TGI [6]: 23.7 µM
- GI50 [7]: 4.68 µM
- TGI [7]: 11.5 µM
- GI50 [8]: 2.06 µM
- TGI [8]: 4.51 µM
- GI50 [9]: 3.78 µM
- TGI [9]: 19.5 µM
- GI50 [10]: 2.83 µM
- TGI [10]: 21 µM
- GI50 [11]: 2.36 µM
- TGI [11]: 7.64 µM
- GI50 [12]: 2.88 µM
- TGI [12]: 8.55 µM
- GI50 [13]: 13.3 µM
- TGI [13]: 30.8 µM
- GI50 [14]: 14.7 µM
- TGI [14]: 39.8 µM
- GI50 [15]: 7.44 µM
- TGI [15]: 20.9 µM
- GI50 [16]: 2.54 µM
- TGI [16]: 7.3 µM
- GI50 [17]: 2.8 µM
- TGI [17]: 8.47 µM
- GI50 [18]: 7.12 µM
- TGI [18]: 19.5 µM
- GI50 [19]: 8.72 µM
- TGI [19]: 51 µM
- GI50 [20]: 8.99 µM
- TGI [20]: 44.6 µM
- GI50 [21]: 10.7 µM
- TGI [21]: 27.5 µM
- GI50 [22]: 4.67 µM
- TGI [22]: 10.5 µM
- GI50 [23]: 6.36 µM
- TGI [23]: 18.4 µM
- GI50 [24]: 4.87 µM
- TGI [24]: 18.4 µM
- GI50 [25]: 6.36 µM
- TGI [25]: 26.2 µM
- GI50 [26]: 6.29 µM
- TGI [26]: 21.3 µM
- GI50 [27]: 11.1 µM
- TGI [27]: 33.6 µM
- GI50 [28]: 8.32 µM
- TGI [28]: > 41.4 µM
- GI50 [29]: 3.58 µM
- TGI [29]: 14.3 µM
- GI50 [30]: 1.56 µM
- TGI [30]: 4.46 µM
- GI50 [31]: 10.1 µM
- TGI [31]: 34.6 µM
- GI50 [32]: 18.1 µM
- TGI [32]: 51 µM
- GI50 [33]: 2.2 µM
- TGI [33]: 5 µM
- GI50 [34]: 4.14 µM
- TGI [34]: 15.9 µM
- GI50 [35]: 8.11 µM
- TGI [35]: 31.7 µM
- GI50 [36]: 2.37 µM
- TGI [36]: 6.67 µM
- GI50 [37]: 11.1 µM
- TGI [37]: 41.5 µM
- GI50 [38]: 4.72 µM
- TGI [38]: 27 µM
- GI50 [39]: 1.16 µM
- TGI [39]: 6.95 µM
- GI50 [40]: 2.4 µM
- TGI [40]: 5.13 µM
- GI50 [41]: 1.59 µM
- TGI [41]: 6.27 µM
- GI50 [42]: 6.43 µM
- TGI [42]: 18.7 µM
- GI50 [43]: 5.05 µM
- TGI [43]: 17.6 µM
- GI50 [44]: 3.94 µM
- TGI [44]: 21.9 µM
- GI50 [45]: 12.6 µM
- TGI [45]: > 50.2 µM
- GI50 [46]: 3.41 µM
- TGI [46]: 10.7 µM
- GI50 [47]: 0.345 µM
- TGI [47]: 13.6 µM
- GI50 [48]: 4.64 µM
- TGI [48]: 19.5 µM
- GI50 [49]: 2.88 µM
- TGI [49]: 9.32 µM
- GI50 [50]: 5.86 µM
- TGI [50]: > 49.9 µM
- GI50 [51]: 9.13 µM
- TGI [51]: 22.4 µM
- GI50 [52]: 3.08 µM
- TGI [52]: 9.77 µM
- GI50 [53]: 11.4 µM
- TGI [53]: > 46.5 µM
- GI50 [54]: 3.51 µM
- TGI [54]: 13.6 µM
- GI50 [55]: 8.33 µM
- TGI [55]: 26.9 µM
- GI50 [56]: 2.73 µM
- TGI [56]: 8.72 µM
- GI50 [57]: 3.62 µM
- TGI [57]: 11.7 µM

SMILES: C[C@H](NC(=O)[C@@H](C)N)[C@H](Oc1ccc2c(cnn2-c2ccc(F)cc2)c1)c1ccc2c(c1)OCCO2
- GI50 [1]: 1.71 µM
- TGI [1]: 3.36 µM
- GI50 [2]: 2.64 µM
- TGI [2]: 15.8 µM
- GI50 [3]: 1.39 µM
- TGI [3]: 3.27 µM
- GI50 [4]: 2.4 µM
- TGI [4]: 5.56 µM
- GI50 [5]: 1.09 µM
- TGI [5]: 4.79 µM
- GI50 [6]: 2.84 µM
- TGI [6]: 12.1 µM
- GI50 [7]: 1.83 µM
- TGI [7]: 3.61 µM
- GI50 [8]: 1.87 µM
- TGI [8]: 3.84 µM
- GI50 [9]: 2.69 µM
- TGI [9]: 13.5 µM
- GI50 [10]: 1.17 µM
- TGI [10]: 3.75 µM
- GI50 [11]: 3.77 µM
- TGI [11]: 14.3 µM
- GI50 [12]: 1.93 µM
- TGI [12]: 4.69 µM
- GI50 [13]: 1.87 µM
- TGI [13]: 3.39 µM
- GI50 [14]: 0.208 µM
- TGI [14]: 13.5 µM
- GI50 [15]: 1.82 µM
- TGI [15]: 15 µM
- GI50 [16]: 1.98 µM
- TGI [16]: 4.7 µM
- GI50 [17]: 1.95 µM
- TGI [17]: 3.9 µM
- GI50 [18]: 3.15 µM
- TGI [18]: 10.8 µM
- GI50 [19]: 1.84 µM
- TGI [19]: 5.07 µM
- GI50 [20]: 3.67 µM
- TGI [20]: 13.1 µM
- GI50 [21]: 2.37 µM
- TGI [21]: 6.98 µM
- GI50 [22]: 4.34 µM
- TGI [22]: 20.1 µM
- GI50 [23]: 1.68 µM
- TGI [23]: 3.3 µM
- GI50 [24]: 2.02 µM
- TGI [24]: 5.01 µM
- GI50 [25]: 3.93 µM
- TGI [25]: 15.6 µM
- GI50 [26]: 2.22 µM
- TGI [26]: 5.25 µM
- GI50 [27]: 1.29 µM
- TGI [27]: 4.27 µM
- GI50 [58]: 2.03 µM
- TGI [58]: 5.24 µM
- GI50 [28]: 1.61 µM
- TGI [28]: 3.24 µM
- GI50 [29]: 11.5 µM
- TGI [29]: 24.4 µM
- GI50 [30]: 1.9 µM
- TGI [30]: 3.78 µM
- GI50 [31]: 3.29 µM
- TGI [31]: 12.4 µM
- GI50 [32]: 1.91 µM
- TGI [32]: 3.92 µM
- GI50 [33]: 1.78 µM
- TGI [33]: 3.41 µM
- GI50 [34]: 1.83 µM
- TGI [34]: 4.9 µM
- GI50 [35]: 2.48 µM
- TGI [35]: 10.7 µM
- GI50 [36]: 2.13 µM
- TGI [36]: 5.15 µM
- GI50 [37]: 2.19 µM
- TGI [37]: 5.41 µM
- GI50 [38]: 1.43 µM
- TGI [38]: 3.71 µM
- GI50 [39]: 1.44 µM
- TGI [39]: 4.25 µM
- GI50 [40]: 1.78 µM
- TGI [40]: 3.66 µM
- GI50 [41]: 2.28 µM
- TGI [41]: 4.94 µM
- GI50 [42]: 2.29 µM
- TGI [42]: 7.11 µM
- GI50 [43]: 1.52 µM
- TGI [43]: 2.94 µM
- GI50 [44]: 1.36 µM
- TGI [44]: 12.6 µM
- GI50 [45]: 1.75 µM
- TGI [45]: 3.4 µM
- GI50 [46]: 1.65 µM
- TGI [46]: 3.54 µM
- GI50 [47]: 1.49 µM
- TGI [47]: 4.6 µM
- GI50 [49]: 1.56 µM
- TGI [49]: 3.15 µM
- GI50 [50]: 3.25 µM
- TGI [50]: 14 µM
- GI50 [51]: 1.5 µM
- TGI [51]: 3.09 µM
- GI50 [53]: 1.94 µM
- TGI [53]: 3.61 µM
- GI50 [54]: 3.58 µM
- TGI [54]: 11.2 µM
- GI50 [55]: 1.04 µM
- TGI [55]: 12.1 µM
- GI50 [56]: 1.98 µM
- TGI [56]: 4.44 µM
- GI50 [57]: 1.87 µM
- TGI [57]: 3.73 µM
